# Laboratory results taken from patent US12637462B2, “Integrin inhibitor and uses thereof” (Pliant Therapeutics, Inc., priority 2020, dated 2026).
# Read-outs that look alike come from different tables or passages of the source.
# What was measured:
# [1] = Approximate solubility at RT by stepwise solvent addition; assay type: physicochemical
# Procedure: The approximate solubility of (S)-4-((2-methoxyethyl)(4-(5,6,7,8-tetrahydro-1,8-naphthyridin-2-yl)butyl)amino)-2-(quinazolin-4-ylamino)butanoic acid was determined at RT. Approximately 2 mg of solids were added into a 3-mL glass vial. Different solvents were then added stepwise (50-50-200-700 μL for each step) into the vials and stirred until the solids were dissolved or a total volume of 1 mL was reached.
# The approximate solubility of Form I was determined at RT. Approximately 2 mg of solids were added into 3-mL glass vials. Different solvents were then added stepwise (50-50-200-700 μL for each step) into the vials until the solids were dissolved or a total volume of 1 mL was reached.
# [2] = molecular target: recombinant human integrin αvβ6 (Homo sapiens, UniProt P06756+P18564); test: Solid phase integrin αvβ6 binding assay; details: TGFβ1 LAP binding to coated integrin, four-parameter logistic regression; read-out: IC50 for αvβ6 integrin inhibition
# Procedure: Microplates were coated with recombinant human integrin αvβ6 (2 μg/mL) in PBS (100 μL/well 25° C., overnight). The coating solution was removed, washed with wash buffer (0.05% Tween 20; 0.5 mM MnCl2; in 1×TBS). The plate was blocked with 200 μL/well of Block Buffer (1% BSA; 5% sucrose; 0.5 mM MnCl2; in 1×TBS) at 37° C. for 2 h. Dilutions of testing compounds and recombinant TGFβ1 LAP (0.67 μg/mL) in binding buffer (0.05% BSA; 2.5% sucrose; 0.5 mM MnCl2; in 1×TBS) were added. The plate was incubated for 2 hours at 25° C., washed, and incubated for 1 hour with Biotin-Anti-hLAP. Bound antibody was detected by peroxidase-conjugated streptavidin. The IC50 values for testing compounds were calculated by a four-parameter logistic regression. The IC50 value obtained for αvβ6 integrin inhibition for (S)-4-((2-methoxyethyl)(4-(5,6,7,8-tetrahydro-1,8-naphthyridin-2-yl)butyl)amino)-2-(quinazolin-4-ylamino)butanoic acid was <50 nM.
# [3] = Heating experiment, solid form checked by XRPD; assay type: physicochemical; details: for solid form after heating: after heating to 150° C.
# [4] = Dynamic vapor sorption (DVS); assay type: physicochemical; details: 4.5 g scale batch
# Procedure: DVS was measured via a SMS (Surface Measurement Systems) DVS Intrinsic. The relative humidity at 25° C. were calibrated against the deliquescence point of LiCl, Mg(NO3)2 and KCl.
# Form I on 4.5 g scale was obtained via slurrying 4.5 g amorphous freeform of (S)-4-((2-methoxyethyl)(4-(5,6,7,8-tetrahydro-1,8-naphthyridin-2-yl)butyl)amino)-2-(quinazolin-4-ylamino)butanoic acid and an equimolar amount of 85% phosphoric acid (1.05 g) in anhydrous EtOH (≥99.7%) (112 mL) at RT and seeded with around 1 wt % Form I seed. The product was analyzed by XRPD, DSC, TGA, DVS, ^1H NMR, and HPLC. […] Based on HPLC/IC analysis, the molar ratio of API:phosphoric acid was 1:1.
# recombinant human integrin αvβ6, sequence (P06756 31-992 limits assumed): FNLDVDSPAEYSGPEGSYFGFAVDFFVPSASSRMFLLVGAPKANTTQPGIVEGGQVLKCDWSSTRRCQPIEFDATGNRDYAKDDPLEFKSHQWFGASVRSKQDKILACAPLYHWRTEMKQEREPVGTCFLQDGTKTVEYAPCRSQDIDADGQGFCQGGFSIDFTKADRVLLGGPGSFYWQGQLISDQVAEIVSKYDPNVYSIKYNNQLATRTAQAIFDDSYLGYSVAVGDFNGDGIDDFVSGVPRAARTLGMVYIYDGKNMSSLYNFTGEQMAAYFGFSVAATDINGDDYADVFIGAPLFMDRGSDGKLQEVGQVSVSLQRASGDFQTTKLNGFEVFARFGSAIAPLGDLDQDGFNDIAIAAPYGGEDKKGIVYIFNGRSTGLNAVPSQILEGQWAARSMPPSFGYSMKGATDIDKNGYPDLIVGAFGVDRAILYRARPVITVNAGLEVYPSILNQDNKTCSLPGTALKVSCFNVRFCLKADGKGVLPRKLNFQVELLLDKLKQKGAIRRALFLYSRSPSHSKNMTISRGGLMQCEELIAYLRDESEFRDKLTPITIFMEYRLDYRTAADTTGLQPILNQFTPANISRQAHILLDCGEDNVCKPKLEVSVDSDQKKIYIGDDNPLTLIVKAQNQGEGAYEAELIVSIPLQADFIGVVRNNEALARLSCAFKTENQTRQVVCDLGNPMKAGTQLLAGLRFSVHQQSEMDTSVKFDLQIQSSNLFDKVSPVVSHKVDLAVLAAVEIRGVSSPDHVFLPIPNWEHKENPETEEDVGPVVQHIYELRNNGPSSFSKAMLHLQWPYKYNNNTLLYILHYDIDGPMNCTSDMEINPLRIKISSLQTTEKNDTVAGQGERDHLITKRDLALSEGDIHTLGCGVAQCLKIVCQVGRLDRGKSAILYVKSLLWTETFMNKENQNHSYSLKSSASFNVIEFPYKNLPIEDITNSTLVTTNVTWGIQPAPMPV
# recombinant human integrin αvβ6, sequence (P18564 22-707 limits assumed): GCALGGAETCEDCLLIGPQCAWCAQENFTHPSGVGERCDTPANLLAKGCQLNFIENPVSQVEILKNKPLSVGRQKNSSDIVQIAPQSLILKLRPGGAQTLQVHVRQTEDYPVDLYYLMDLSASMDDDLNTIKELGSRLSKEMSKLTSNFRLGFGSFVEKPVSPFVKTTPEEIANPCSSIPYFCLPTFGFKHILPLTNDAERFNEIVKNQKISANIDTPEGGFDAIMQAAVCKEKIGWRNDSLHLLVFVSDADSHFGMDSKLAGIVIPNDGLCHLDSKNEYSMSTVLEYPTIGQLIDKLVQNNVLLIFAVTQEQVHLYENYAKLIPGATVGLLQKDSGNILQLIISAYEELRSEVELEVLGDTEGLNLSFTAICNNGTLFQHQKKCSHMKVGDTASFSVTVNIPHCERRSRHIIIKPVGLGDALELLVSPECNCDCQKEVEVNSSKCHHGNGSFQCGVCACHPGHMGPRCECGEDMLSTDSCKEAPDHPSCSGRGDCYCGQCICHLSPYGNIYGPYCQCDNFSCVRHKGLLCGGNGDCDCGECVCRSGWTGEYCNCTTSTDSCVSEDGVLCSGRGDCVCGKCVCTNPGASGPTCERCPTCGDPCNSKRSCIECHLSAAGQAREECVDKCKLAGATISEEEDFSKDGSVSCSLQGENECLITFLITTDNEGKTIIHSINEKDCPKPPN
structure (smiles),measurement,setting,value
"COCCN(CCCCc1ccc2c(n1)NCCC2)CC[C@H](Nc1ncnc2ccccc12)C(=O)O [(S)-4-((2-methoxyethyl)(4-(5,6,7,8-tetrahydro-1,8-naphthyrid] [(S)-4-((2-methoxyethyl)(4-(5,6,7,8-tetrahydro-1,8-naphthyridin-2-yl)butyl)amino)-2-(quinazolin-4-ylamino)butanoic acid]",Solubility,"[1]; 1,4-Dioxane",S > 42.0 mg/mL
same,Solubility,[1]; DCM,S > 38.0 mg/mL
same,Solubility,[1]; DMSO,S > 42.0 mg/mL
same,Solubility,[1]; EtOH,S > 44.0 mg/mL
same,Solubility,[1]; IPA,S > 48.0 mg/mL
same,Solubility,[1]; THF,S > 32.0 mg/mL
"COCCN(CCCCc1ccc2c(n1)NCCC2)CC[C@H](Nc1ncnc2ccccc12)C(=O)O [(S)-4-((2-methoxyethyl)(4-(5,6,7,8-tetrahydro-1,8-naphthyridin-2-yl)butyl)amino)-2-(quinazolin-4-ylamino)butanoic acid]",IC50,[2],< 0.05 µM
same,Solubility,"[1]; ACN, organic solvent or mixture, thermodynamic from solid, ACN, read-out: Solubility",1900 to 6300 µg/mL
same,Solubility,"[1]; CPME, organic solvent or mixture, thermodynamic from solid, CPME, read-out: Solubility",2600 to 8700 µg/mL
same,Solubility,"[1]; EtOAc, organic solvent or mixture, thermodynamic from solid, EtOAc, read-out: Solubility",2100 to 7000 µg/mL
same,Solubility,"[1]; IPAc, organic solvent or mixture, thermodynamic from solid, IPAc, read-out: Solubility",2300 to 7700 µg/mL
same,Solubility,"[1]; MIBK, organic solvent or mixture, thermodynamic from solid, MIBK, read-out: Solubility",2500 to 8300 µg/mL
same,Solubility,"[1]; MTBE, organic solvent or mixture, thermodynamic from solid, MTBE, read-out: Solubility",< 2000 µg/mL
same,Solubility,"[1]; MeOH, organic solvent or mixture, thermodynamic from solid, MeOH, read-out: Solubility",> 52000 µg/mL
same,Solubility,"[1]; Toluene, organic solvent or mixture, thermodynamic from solid, Toluene, read-out: Solubility",1900 to 6300 µg/mL
same,Solubility,"[1]; n-Heptane, organic solvent or mixture, thermodynamic from solid, n-Heptane, read-out: Solubility",< 2200 µg/mL
"COCCN(CCCCc1ccc2c(n1)NCCC2)CC[C@H](Nc1ncnc2ccccc12)C(=O)O [Form I, (S)-4-((2-methoxyethyl)(4-(5,6,7,8-tetrahydro-1,8-naphthyridin-2-yl)butyl)amino)-2-(quinazolin-4-ylamino)butanoic acid]",form change after heating,[3]; after heating to 110° C.,No form changes
same,solid form after heating,[3],amorphous
same,Solubility,"[1]; 1,4-Dioxane",S < 1.7 mg/mL
same,Solubility,[1]; 2-MeTHF,S < 2.1 mg/mL
same,Solubility,[1]; ACN,S < 1.6 mg/mL
same,Solubility,[1]; Acetone,S < 1.9 mg/mL
same,Solubility,[1]; CPME,S < 1.9 mg/mL
same,Solubility,[1]; DCM,S < 2.8 mg/mL
same,Solubility,[1]; EtOAc,S < 1.7 mg/mL
same,Solubility,[1]; H2O,S > 56.0 mg/mL
same,Solubility,[1]; IPA,S < 2.2 mg/mL
same,Solubility,[1]; IPAc,S < 2.6 mg/mL
same,Solubility,[1]; MEK,S < 2.4 mg/mL
same,Solubility,[1]; MIBK,S < 2.8 mg/mL
same,Solubility,[1]; MTBE,S < 2.1 mg/mL
same,Solubility,[1]; MeOH,S > 52.0 mg/mL
same,Solubility,[1]; THF,S < 1.6 mg/mL
same,Solubility,[1]; Toluene,S < 2.2 mg/mL
same,Solubility,[1]; n-Heptane,S < 2.1 mg/mL
same,water absorption,[4]; 25° C./80% RH,16.4%
same,state after the DVS test,[4]; after DVS test,deliquescent
"COCCN(CCCCc1ccc2c(n1)NCCC2)CC[C@H](Nc1ncnc2ccccc12)C(=O)O [Form II, (S)-4-((2-methoxyethyl)(4-(5,6,7,8-tetrahydro-1,8-naphthyridin-2-yl)butyl)amino)-2-(quinazolin-4-ylamino)butanoic acid]",solid form after heating,[3],amorphous
